# Measured values: patent US6358927B1, “Peptide fragments and analogs derived from PBAN 1-33 NH2 for controlling moths” (priority 1994, dated 2002)
# Assays:
# Assay type in all cases: in vivo
# [1] = test system: Heliothis peltigera; experiment: Pheromonotropic bioassay: peptide injected into females, pheromone content (Z11-16:Ald) of the gland measured; settings: shortly after injection (15-30 min) (FIG. 5)
# [2] = test system: Heliothis peltigera; experiment: as above; settings: for biological activity (in words): 10 pmol in the presence of protease inhibitors for 2 hours; for effect of protease inhibitors on the biological activity of the peptide (in words): mixture of carboxypeptidase inhibitors (aprotinin and PMSF) and other protease inhibitors (TLCK, bacitracin) (FIG. 3)
# Procedure: (§1) Structure activity studies were performed by an examination of the pheromonotropic activity of synthetic Hez-PAN (PBAN 1-33 NH2) and ten shorter fragments derived from its N- and C-terminal regions. Activity was tested on Heliothis peltigera using a bioassay as described by Gazit et al; (Insect Biochem., 20, 853-858, 1990). These structures are as follows:
# The role of the N-terminus on the onset of the biological activity was examined using a series of peptides lacking 8, 12, 16, and 18 amino acids from their N-terminus [PBAN (9-33) NH2, PBAN (13-33) NH2, PBAN (17-33) NH2 and PBAN (19-33) NH2], respectively. […] Pheromone content was examined two hours post-injection. […] The N-terminal region may provide stability against proteolytic degradation or alternatively may play a secondary structural role.
# Pheromonotropic activity was determined by injecting the peptides, dissolved in buffer phosphate to 3.5-4.5 days old females during daylight for two hours. Pheromone content is represented by the amount of the major pheromone component Z11-16:Ald.
# [3] = test system: Heliothis peltigera; experiment: Inhibition of pheromonotropic activity evoked by PBAN (1-33) NH2 (co-injection of free acid fragments or antiserum); settings: for inhibitory activity on pheromonotropic activity evoked by PBAN (1-33) NH2 (in words): injected together with 1 pmol PBAN (1-33) NH2
# Procedure: as §1, with “1990).” for “1990). These structures are as follows:”
# [4] = test system: Spodoptera littoralis larvae; experiment: Melanotropic bioassay: cuticular melanization in ligated larvae; settings: for Non pigmented area / Pigmented area: 10 pmol injected, ligated larvae, computerized optical density scanner; for cuticular melanization (in words): injection into ligated larvae, compared with ligation or buffer injection
# Procedure: Structure activity studies were also performed with respect to the melanotropic activity of synthetic Hez-PBAN. All the fragments that were tested for their pheromonotropic activity were also tested for their melanotropic activity. Studies were performed on Spodoptera littoralis larvae using a quantitative bioassay (Altstein et al., Peptides, submitted, 1994) which examines the ability of PBAN fragments to induce cuticular melanization in ligated larvae. Ligated larvae produce smaller amounts of melanin compared to untreated larvae (Table 4) as a result of a reduction in their endogenous PBAN. Under the tested conditions ligation caused a significant, but not complete, reduction in cuticular melanization. This incomplete reduction may result from the presence of PBAN in ganglia which were not affected by the ligation or from the presence of another hormone or neuropeptide that affects this process.
# Pigmented and non-pigmented areas were determined by a computerized optical density scanner as described by Altstein et al., (Peptides, submitted, 1994).
# [5] = Dose of 1 pmol, injected in phosphate buffer to 3.5-4.5 days old females during daylight for two hours
# [6] = Dose of 10 pmol, injected in phosphate buffer to 3.5-4.5 days old females during daylight for two hours
# [7] = concentrations ranging from 1-100 pmol, tested 2 hours post injection (FIG. 4)
# [8] = C-terminally free acid peptides, 10 pmol, in the presence of protease inhibitors for 2 hours
# [9] = free acid fragment at 10 pmol injected together with PBAN (1-33) NH2 at 1 pmol
# [10] = 1 pmol, pheromone content two hours post-injection
Substance,"Pheromone content Z11-16:Ald ng/gland ± SE [2, 5]","Pheromone content Z11-16:Ald ng/gland ± SE [2, 6]","Pheromone content Z11-16:Ald ng/gland ± SE [2, 8]","Inhibition (% of cont) [3, 9]","Pheromone content Z11-16:Ald ng/gland ± SE [3, 9]",also measured
H-Tyr-Phe-Ser^30-Pro-Arg-Leu^33-NH2 (H-YFSPRL-NH2) [PBAN (28-33) NH2],5.6 ± 1.7 d ng/gland,12.7 ± 4.9 c′ ng/gland,–,–,–,"pheromonotropic activity (in words) [1]: does not differ significantly from that of the full length PBAN (1-33) NH2; pheromonotropic activity (in words) [2, 7]: active only at high doses (100 pmol)"
H-Pro-Ala^10-Asp-Gln-Glu-Met-Tyr-Arg-Gln-Asp-Pro-Glu^20-Gln-Ile-Asp-Ser-Arg-Thr-Lys-Tyr-Phe-Ser^30-Pro-Arg-Leu^23-COOH (H-PADQEMYRQDPEQIDSRTKYFSPRL-OH) [PBAN (9-33) COOH],–,–,<1 ng/gland,7%,154.7 ± 22.2 ng/gland,biological activity (in words) [2]: lack any biological activity; inhibitory activity on pheromonotropic activity evoked by PBAN (1-33) NH2 (in words) [3]: did not show any inhibitory activity
H-Pro-Ala^10-Asp-Gln-Glu-Met-Tyr-Arg-Gln-Asp^18-COOH (H-PADQEMYRQD-OH) [PBAN (9-18) COOH],–,–,<1 ng/gland,35%,108.1 ± 18.0 ng/gland,biological activity (in words) [2]: lack any biological activity; inhibition of the pheromonotropic activity ([3]; 100 pmol of fragment together with 0.5 pmol PBAN (1-33) NH2 (FIG. 6)): 40%; Non pigmented area [4]: 25%; Pigmented area [4]: 75%; cuticular melanization (in words) [4]: significant decrease
H-Glu-Met-Tyr-Arg-Gln-Asp-Pro-Glu^20-Gln-Ile-Asp-Ser-Arg-Thr-Lys-Tyr-Phe-Ser^30-Pro-Arg-Leu^33-NH2 [PBAN (13-33) NH2],4.1 ± 3.0 d ng/gland,180.2 ± 47.3 a′ ng/gland,–,–,–,–
H-Thr-Lys-Tyr-Phe-Ser^30-Pro-Arg-Leu^33-NH2 (H-TKYFSPRL-NH2) [PBAN (26-33) NH2],8.9 ± 3.5 d ng/gland,12.2 ± 3.1 c′ ng/gland,–,–,–,"pheromonotropic activity (in words) [2, 7]: active only at high doses (100 pmol)"
H-Pro-Glu^20-Gln-Ile-Asp-Ser-Arg-Thr-Lys-Tyr-Phe-Ser^30-Pro-Arg-Leu^33-NH2 [PBAN (19-33) NH2],52.7 ± 21.0 b ng/gland,133.8 ± 15.7 b′ ng/gland,–,–,–,"pheromonotropic activity (in words) [2, 10]: low activity"
H-Pro-Ala^10-Asp-Gln-Glu-Met-Tyr-Arg-Gln-Asp-Pro-Glu^20-Gln-Ile-Asp-Ser-Arg-Thr-Lys-Tyr-Phe-Ser^30-Pro-Arg-Leu^33-NH2 [PBAN (9-33) NH2],143.7 ± 29.6 a ng/gland,168.0 ± 9.2 a′ ng/gland,–,–,–,"pheromonotropic activity (in words) [2, 10]: active as PBAN (1-33) NH2"
H-Leu^1-Ser-Asp-Asp-Met-Pro-Ala-Thr-Pro-Ala^10-Asp-Gln-Glu-Met-Tyr-Arg-Gln-Asp-Pro-Glu^20-Gln-Ile-Asp-Ser-Arg-Thr-Lys-Tyr-Phe-Ser^30-Pro-Arg-Leu^33-COOH [PBAN (1-33) COOH],–,–,1.4 ± 0.76 ng/gland,0%,170.2 ± 24.2 ng/gland,pheromonotropic activity (in words) ([2]; 10 pmol): completely inactive; effect of protease inhibitors on the biological activity of the peptide (in words) [2]: did not enhance; inhibitory activity on pheromonotropic activity evoked by PBAN (1-33) NH2 (in words) [3]: did not show any inhibitory activity
"H-Leu^1-Ser-Asp-Asp-Met-Pro-Ala-Thr-Pro-Ala^10-Asp-Gln-Glu-Met-Tyr-Arg-Gln-Asp-Pro-Glu^20-Gln-Ile-Asp-Ser-Arg-Thr-Lys-Tyr-Phe-Ser^30-Pro-Arg-Leu^33-NH2 [PBAN (1-33) NH2, reference compound]",200.7 ± 40.7 a ng/gland,225.2 ± 51.4 a′ ng/gland,–,–,–,effect of protease inhibitors on the biological activity of the peptide (in words) [2]: significant stimulation in its activity; Pheromone content Z11-16:Ald ng/gland ± SE ([3]; PBAN (1-33) NH2 alone at 1 pmol (control of Table 3)): 165.0 ± 21.0 ng/gland; Non pigmented area [4]: 4%; Pigmented area [4]: 96%; cuticular melanization (in words) [4]: significant increase
H-Gln-Asp-Pro-Glu^20-Gln-Ile-Asp-Ser-Arg-Thr-Lys-Tyr-Phe-Ser^30-Pro-Arg-Leu^33-NH2 [PBAN (17-33) NH2],24.1 ± 5.7 c ng/gland,196.9 ± 40.7 a′ ng/gland,–,–,–,–
H-Pro-Glu^20-Gln-Ile-Asp-Ser-Arg-Thr-Lys-Tyr-Phe-Ser^30-Pro-Arg-Leu^33-COOH [PBAN (19-33) COOH],–,–,<1 ng/gland,27%,120.4 ± 29.2 ng/gland,biological activity (in words) [2]: lack any biological activity; inhibitory activity on pheromonotropic activity evoked by PBAN (1-33) NH2 (in words) [3]: did not show any inhibitory activity
